Each compound was assayed against HPK1 (Homo sapiens, UniProt Q92918) (assay: HPK1 Biochemical Assay (ADP-Glo luminescence; low ATP 10 μM or high ATP 200 μM)). Settings: 2 nM HPK1, 10 μM ATP; read-out: Biochemical Potency (low ATP).
Method: Dose-response assays were performed in Corning® Low Volume 384-well assay plates containing 100 nL of 22 serial 2-fold compound dilutions. Wells containing DMSO alone were used as negative control. A kinase mixture (5 μL) containing 2 nM HPK1 (or 5 nM for high ATP assay) in assay buffer (50 mM Hepes pH 7.4, 10 mM MgCl2, 0.01% Brij-15, 0.01% bovine serum albumin, and 1 mM dithiothreitol) was added to the assay plates and incubated at 25° C. for 1 hour. Wells without HPK1 were used as positive control. A […] of 10 μM ATP (or 200 μM for high ATP) and 0.2 μg/μL […] was then added to the wells, resulting in a 10 μL total reaction volume. Following incubation of the assay plates at 25° C. for 1 hour, 10 μL of ADP-Glo reagent was added to the wells and the plates were incubated at 25° C. for a further 40 minutes (or 1 hour for high ATP assay). Finally, 20 μL of Kinase Detection Reagent was added, and the plates were incubated for another 30 minutes at 25° C. An Envision plate reader was then used to detect the luminescence signals. IC50 values were determined by fitting the data to a standard 4-parameter logistic equation. The results are summarized in the Biochemical Potency columns of Tables 4 and 5 below (Biochemical Potency (high ATP); Biochemical Potency (low ATP)).

Sequence of HPK1 (Q92918 whole entry, species assumed): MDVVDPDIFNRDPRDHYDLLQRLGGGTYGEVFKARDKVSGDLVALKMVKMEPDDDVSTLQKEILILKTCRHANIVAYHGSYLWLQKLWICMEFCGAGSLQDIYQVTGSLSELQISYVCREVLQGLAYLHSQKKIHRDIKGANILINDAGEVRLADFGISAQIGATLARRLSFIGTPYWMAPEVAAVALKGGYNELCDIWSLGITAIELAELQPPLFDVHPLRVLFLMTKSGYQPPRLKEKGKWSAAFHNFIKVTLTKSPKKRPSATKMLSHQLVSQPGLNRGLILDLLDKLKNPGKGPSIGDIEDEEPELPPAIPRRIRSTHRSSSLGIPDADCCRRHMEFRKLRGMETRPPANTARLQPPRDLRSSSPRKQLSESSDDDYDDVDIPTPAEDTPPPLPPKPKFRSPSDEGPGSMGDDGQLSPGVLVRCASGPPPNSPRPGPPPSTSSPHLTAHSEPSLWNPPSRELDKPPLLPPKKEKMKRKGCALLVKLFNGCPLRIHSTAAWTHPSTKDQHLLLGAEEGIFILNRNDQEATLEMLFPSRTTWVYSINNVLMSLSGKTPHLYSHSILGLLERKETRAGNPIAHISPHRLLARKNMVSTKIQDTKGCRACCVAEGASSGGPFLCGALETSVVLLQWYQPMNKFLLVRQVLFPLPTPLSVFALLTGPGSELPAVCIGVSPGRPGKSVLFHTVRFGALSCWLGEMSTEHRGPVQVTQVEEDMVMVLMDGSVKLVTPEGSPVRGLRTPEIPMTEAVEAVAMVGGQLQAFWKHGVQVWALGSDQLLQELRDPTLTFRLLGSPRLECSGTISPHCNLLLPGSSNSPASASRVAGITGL

Compound | IC50 [nM]
Cc1cc(-c2nc3cc(Nc4ccc(N5CCOCC5)c(CN5CCCC5)c4)ncc3s2)ccn1 [Example 2, 2-(2-Methylpyridin-4-yl)-N-[4-(morpholin-4-yl)-3-[(pyrrolidin-1-yl)methyl]phenyl]-[1,3]thiazolo[5,4-c]pyridin-6-amine] | 100 to 1000
Fc1cccnc1-c1nc2cc(Nc3ccc(N4CCOCC4)c(CN4CCCC4)n3)ncc2s1 [Example 8, N-[2-(3-Fluoropyridin-2-yl)-[1,3]thiazolo[5,4-c]pyridin-6-yl]-5-(morpholin-4-yl)-6-[(pyrrolidin-1-yl)methyl]pyridin-2-amine] | < 100
Cc1cccc(C)c1-c1nc2cc(Nc3ccc(N4CCC(F)(F)C4)c(CN4CCCC4)n3)ncc2s1 [Example 10, 5-(3,3-Difluoropyrrolidin-1-yl)-N-[2-(2,6-dimethylphenyl)-[1,3]thiazolo[5,4-c]pyridin-6-yl]-6-[(pyrrolidin-1-yl)methyl]pyridin-2-amine] | < 100
Fc1cccc(F)c1-c1nc2cc(Nc3ccc(N4CCC(F)(F)C4)c(CN4CCCC4)n3)ncc2s1 [Example 11, N-[2-(2,6-Difluorophenyl)-[1,3]thiazolo[5,4-c]pyridin-6-yl]-5-(3,3-difluoropyrrolidin-1-yl)-6-[(pyrrolidin-1-yl)methyl]pyridin-2-amine] | 100 to 1000
N#Cc1ccc(-c2nc3cc(Nc4ccc(N5CCOCC5)c(CN5CCCC5)n4)ncc3s2)cc1 [Example 21, 4-(6-{[5-(Morpholin-4-yl)-6-[(pyrrolidin-1-yl)methyl]pyridin-2-yl]amino}-[1,3]thiazolo[5,4-c]pyridin-2-yl)benzonitrile] | < 100
Fc1ccc(-c2nc3cc(Nc4ccc(N5CCOCC5)c(CN5CCCC5)n4)ncc3s2)cc1 [Example 22, N-[2-(4-Fluorophenyl)-[1,3]thiazolo[5,4-c]pyridin-6-yl]-5-(morpholin-4-yl)-6-[(pyrrolidin-1-yl)methyl]pyridin-2-amine] | < 100
c1n[nH]cc1-c1nc2cc(Nc3ccc(N4CCOCC4)c(CN4CCCC4)n3)ncc2s1 [Example 25, 5-(Morpholin-4-yl)-N-[2-(1H-pyrazol-4-yl)-[1,3]thiazolo[5,4-c]pyridin-6-yl]-6-[(pyrrolidin-1-yl)methyl]pyridin-2-amine] | < 100
Cc1ccc(Nc2cc3nc(-c4ccc(F)cc4)sc3cn2)nc1CN1CCCC1 [Example 32, N-[2-(4-Fluorophenyl)-[1,3]thiazolo[5,4-c]pyridin-6-yl]-5-methyl-6-[(pyrrolidin-1-yl)methyl]pyridin-2-amine] | < 100
Cc1ccc(Nc2cc3nc(-c4cc(F)cc(F)c4)sc3cn2)nc1CN1CCCC1 [Example 33, N-[2-(3,5-Difluorophenyl)-[1,3]thiazolo[5,4-c]pyridin-6-yl]-5-methyl-6-[(pyrrolidin-1-yl)methyl]pyridin-2-amine] | 100 to 1000
Cc1ccc(Nc2cc3nc(-c4cccc(F)c4)sc3cn2)nc1CN1CCCC1 [Example 34] | < 100
Cc1ccc(Nc2cc3nc(-c4cnn(C(F)(F)F)c4)sc3cn2)nc1CN1CCCC1 [Example 36, 5-Methyl-6-[(pyrrolidin-1-yl)methyl]-N-{2-[1-(trifluoromethyl)-1H-pyrazol-4-yl]-[1,3]thiazolo[5,4-c]pyridin-6-yl}pyridin-2-amine] | 100 to 1000
Cc1ccc(Nc2cc3nc(-c4cnn(C5CCOC5)c4)sc3cn2)nc1CN1CCCC1 (stereo not shown) [Example 38, 5-Methyl-N-{2-[1-(oxolan-3-yl)-1H-pyrazol-4-yl]-[1,3]thiazolo[5,4-c]pyridin-6-yl}-6-[(pyrrolidin-1-yl)methyl]pyridin-2-amine] | < 100
Cc1ccc(Nc2cc3nc(-c4cnn(C5CCOCC5)c4)sc3cn2)nc1CN1CCCC1 [Example 39, 5-Methyl-N-{2-[1-(oxan-4-yl)-1H-pyrazol-4-yl]-[1,3]thiazolo[5,4-c]pyridin-6-yl}-6-[(pyrrolidin-1-yl)methyl]pyridin-2-amine] | < 100
Cc1ccc(Nc2cc3nc(-c4cnn(CCO)c4)sc3cn2)nc1CN1CCCC1 [Example 40, 2-{4-[6-({5-Methyl-6-[(pyrrolidin-1-yl)methyl]pyridin-2-yl}amino)-[1,3]thiazolo[5,4-c]pyridin-2-yl]-1H-pyrazol-1-yl}ethan-1-ol] | < 100
Cc1ccc(Nc2cc3nc(-c4ncccc4C)sc3cn2)nc1CN1CC[C@@H](F)C1 [Example 42, 6-{[(3R)-3-Fluoropyrrolidin-1-yl]methyl}-5-methyl-N-[2-(3-methylpyridin-2-yl)-[1,3]thiazolo[5,4-c]pyridin-6-yl]pyridin-2-amine] | < 100
Cc1ccc(Nc2cc3nc(-c4ncccc4C)sc3cn2)nc1CN1CCC[C@@H]1C [Example 45, 5-Methyl-N-[2-(3-methylpyridin-2-yl)-[1,3]thiazolo[5,4-c]pyridin-6-yl]-6-{[(2S)-2-methylpyrrolidin-1-yl]methyl}pyridin-2-amine] | < 100
Cc1ccc(Nc2cc3nc(-c4ncccc4C)sc3cn2)nc1CN1CCCC1(C)C [Example 47, 6-[(2,2-Dimethylpyrrolidin-1-yl)methyl]-5-methyl-N-[2-(3-methylpyridin-2-yl)-[1,3]thiazolo[5,4-c]pyridin-6-yl]pyridin-2-amine] | < 100
Cc1ccc(Nc2cc3nc(-c4ncccc4C)sc3cn2)nc1CN1CCC[C@H]1CO [Example 48, [(2S)-1-[(3-Methyl-6-{[2-(3-methylpyridin-2-yl)-[1,3]thiazolo[5,4-c]pyridin-6-yl]amino}pyridin-2-yl)methyl]pyrrolidin-2-yl]methanol] | < 100
Cc1ccc(Nc2cc3nc(-c4ncccc4C(C)C)sc3cn2)nc1CN1CCCC1 [Example 50, 5-Methyl-N-{2-[3-(propan-2-yl)pyridin-2-yl]-[1,3]thiazolo[5,4-c]pyridin-6-yl}-6-[(pyrrolidin-1-yl)methyl]pyridin-2-amine] | < 100
Cc1ccc(Nc2cc3nc(-c4cnn(C)c4)sc3cn2)nc1CN1CCCC1 [Example 51, 5-Methyl-N-[2-(1-methyl-1H-pyrazol-4-yl)-[1,3]thiazolo[5,4-c]pyridin-6-yl]-6-[(pyrrolidin-1-yl)methyl]pyridin-2-amine] | < 100
Cc1cccnc1-c1nc2cc(Nc3cccc(CN4CCCC4)n3)ncc2s1 [Example 52, N-[2-(3-Methylpyridin-2-yl)-[1,3]thiazolo[5,4-c]pyridin-6-yl]-6-[(pyrrolidin-1-yl)methyl]pyridin-2-amine] | < 100
Cc1ccc(Nc2cc3nc(-c4cccnc4)sc3cn2)nc1CN1CCCC1 [Example 53, 5-Methyl-N-[2-(pyridin-3-yl)-[1,3]thiazolo[5,4-c]pyridin-6-yl]-6-[(pyrrolidin-1-yl)methyl]pyridin-2-amine] | < 100
Cc1ccc(Nc2cc3nc(-c4ncccn4)sc3cn2)nc1CN1CCCC1 [Example 55, 5-Methyl-N-[2-(pyrimidin-2-yl)-[1,3]thiazolo[5,4-c]pyridin-6-yl]-6-[(pyrrolidin-1-yl)methyl]pyridin-2-amine] | 100 to 1000
Cc1ccc(Nc2cc3nc(-c4cnccn4)sc3cn2)nc1CN1CCCC1 [Example 56, 5-Methyl-N-[2-(pyrazin-2-yl)-[1,3]thiazolo[5,4-c]pyridin-6-yl]-6-[(pyrrolidin-1-yl)methyl]pyridin-2-amine] | 100 to 1000
Cc1ccc(Nc2cc3nc(-c4cncnc4)sc3cn2)nc1CN1CCCC1 [Example 58, 5-Methyl-N-[2-(pyrimidin-5-yl)-[1,3]thiazolo[5,4-c]pyridin-6-yl]-6-[(pyrrolidin-1-yl)methyl]pyridin-2-amine] | 100 to 1000
Cc1cccnc1-c1nc2cc(Nc3ccc(C(F)(F)F)c(CN4CCCC4)n3)ncc2s1 [Example 59, N-[2-(3-Methylpyridin-2-yl)-[1,3]thiazolo[5,4-c]pyridin-6-yl]-6-[(pyrrolidin-1-yl)methyl]-5-(trifluoromethyl)pyridin-2-amine] | 100 to 1000
Cc1cccnc1-c1nc2cc(Nc3ccc(F)c(CN4CCCC4)n3)ncc2s1 [Example 61, 5-Fluoro-N-[2-(3-methylpyridin-2-yl)-[1,3]thiazolo[5,4-c]pyridin-6-yl]-6-[(pyrrolidin-1-yl)methyl]pyridin-2-amine] | < 100
Cc1ccc(Nc2cc3nc(-c4ncccc4C)sc3cn2)nc1CCN1CCCC1 [Example 62, 5-Methyl-N-[2-(3-methylpyridin-2-yl)-[1,3]thiazolo[5,4-c]pyridin-6-yl]-6-[2-(pyrrolidin-1-yl)ethyl]pyridin-2-amine] | 100 to 1000
Cc1cccnc1-c1nc2cc(Nc3ccc(N4CCOCC4)c(CN4CCCCC4)n3)ncc2s1 [Example 64, N-[2-(3-Methylpyridin-2-yl)-[1,3]thiazolo[5,4-c]pyridin-6-yl]-5-(morpholin-4-yl)-6-[(piperidin-1-yl)methyl]pyridin-2-amine] | < 100
Cc1cccnc1-c1nc2cc(Nc3ccc(C)c(N4C[C@H](N)C[C@@H]4CO)n3)ncc2s1 [Example 67, [(2R,4R)-4-Amino-1-(3-methyl-6-{[2-(3-methylpyridin-2-yl)-[1,3]thiazolo[5,4-c]pyridin-6-yl]amino}pyridin-2-yl)pyrrolidin-2-yl]methanol] | < 100

Same assay, conditions: Biochemical Potency (low ATP), 2 nM HPK1, 10 μM ATP

Compound | IC50 [nM]
Cc1ccc(Nc2cc3nc(-c4ccncc4)sc3cn2)nc1CN1CCCC1 [Example 35, 5-Methyl-N-[2-(pyridin-4-yl)-[1,3]thiazolo[5,4-c]pyridin-6-yl]-6-[(pyrrolidin-1-yl)methyl]pyridin-2-amine] | < 100
